Literature values in patent US20220118118A1, “BENZAZEPIN-L,7-DIOL-DERIVED RADIOLABELED LIGANDS WITH HIGH IN VIVO NMDA SPECIFICITY” (ETH ZURICH, priority 2018, published 2022).

Details: Garrigou-Cadenne et al. 1995

brain/plasma ratio: about 20
Compound: OC(CN1CCC(Cc2ccc(F)cc2)CC1)c1ccc(Cl)cc1 (stereo not shown) [eliprodil]
